The values below come from patent publication US5523299A, “5-(2-oxyphenyl)-pyrrole derivatives as dopamine D3 receptor antagonists” (SmithKline Beecham PLC, priority 1992, dated 1996).

Structures can show the parent of a compound that is named as a salt.

In this test the target is human D3 dopamine receptors (Homo sapiens, UniProt P35462). The test is described as follows: [125I] iodosulpride displacement binding to cloned dopamine receptors expressed in CHO cells. Conditions: displacement of 0.1 nM [125I] iodosulpride, cloned receptor in CHO cell membranes, 30 min at 37° C. As to the method: The inhibition constants (Ki) of test compounds for displacement of [^125 I] iodosulpride binding to human D2 and D3 dopamine receptors expressed in CHO cells have been determined. […] Cultures were grown as monolayers or in suspension in standard cell culture media. Cells were recovered by scraping (from monolayers) or by centrifugation (from suspension cultures), and were washed two or three times by suspension in phosphate buffered saline followed by collection by centrifugation. Cell pellets were stored frozen at -40° C. Crude cell membranes were prepared by homogenisation followed by high-speed centrifugation, and characterisation of cloned receptors achieved by radioligand binding.
Sequence of human D3 dopamine receptors (P35462 whole entry): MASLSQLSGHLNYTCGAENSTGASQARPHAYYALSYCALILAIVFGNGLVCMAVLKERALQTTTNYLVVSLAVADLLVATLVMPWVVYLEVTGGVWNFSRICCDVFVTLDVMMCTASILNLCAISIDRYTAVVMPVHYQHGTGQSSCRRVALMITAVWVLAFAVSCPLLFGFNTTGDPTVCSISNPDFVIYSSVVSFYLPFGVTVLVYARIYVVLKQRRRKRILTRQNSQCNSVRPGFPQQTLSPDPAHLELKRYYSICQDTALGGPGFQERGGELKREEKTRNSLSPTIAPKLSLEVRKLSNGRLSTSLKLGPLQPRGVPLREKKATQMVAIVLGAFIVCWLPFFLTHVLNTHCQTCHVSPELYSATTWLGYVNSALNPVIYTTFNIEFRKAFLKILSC
Cell pellets were gently thawed at room temperature, and resuspended in about 20 volumes of ice-cold 50 mM Tris salts (pH 7.4 @37° C.), 20 mM EDTA, 0.2M sucrose. The suspension was homogenised using an Ultra-Turrax at full speed for 15 sec. The homogenate was centrifuged at 18,000 r.p.m for 20 min at 4° C. in a Sorvall RC5C centrifuge. The membrane pellet was resuspended in ice-cold 50 mM Tris salts (pH 7.4 @37° C.), using an Ultra-Turrax, and recentrifuged at 18,000 r.p.m for 15 min at 4° C. in a Sorvall RC5C. The membranes were washed two more times with ice-cold 50 mM Tris salts (pH 7.4 @37° C.). The final pellet was resuspended in 50 mM Tris salts (pH 7.4 @37° C.), and the protein content determined using bovine serum albumin as a standard (Bradford, M. M. (1976) Anal. Biochem. 72, 248-254).
Crude cell membranes were incubated with 0.1 nM [^125 I] iodosulpride (~2000 Ci/mmol; Amersham, U.K.), and the test compound in a buffer containing 50 mM Tris salts (pH 7.4 @37° C.), 120 mM NaCl, 5 mM KCl, 2 mM CaCl2, 1 mM MgCl2, 0.1% (w/v) bovine serum albumin, in a total volume of 1 ml for 30 min at 37° C. Following incubation, samples were filtered using a Brandel Cell Harvester, and washed three times with ice-cold 50 mM Tris salts (pH 7.4 @37° C.), 120 mM NaCl5 mM KCl2 mM CaCl2, 1 mM MgCl2. The radioactivity on the filters was measured using a Cobra gamma counter (Canberra Packard). Non-specific binding was defined as the radioligand binding remaining after incubation in the presence of 100 μM iodosulpride. For competition curves, 14 concentrations (half-log dilutions) of competing cold drug were used.
Competition curves were analysed simultaneously whenever possible using non-linear least-squares fitting procedures, capable of fitting one, two or three site models.
In the case of `CCS(=O)(=O)c1ccc(OC)c(-c2ccc(C(C)N3CCCCC3)[nH]2)c1` (single isomer, unassigned; slower eluting) [Example 49, 2-(5-Ethylsulphonyl-2-methoxyphenyl)-5-[1-(1-piperidinyl)-ethyl)-1H-pyrrole, slower eluting enantiomer], the IC50 is 0.2 to 26 nM.
Regarding `COc1c(Br)cc(Br)cc1-c1ccc(CN2CCCCC2)[nH]1` [Example 1, 2-(3,5-Dibromo-2-methoxyphenyl)-5-(1-piperidinylmethyl)-1H-pyrrole hydrochloride], the IC50 was 0.2 to 26 nM.
`CCS(=O)(=O)c1ccc(OC)c(-c2ccc(CN3CCCCC3)[nH]2)c1` [Example 2, 2-(5-Ethylsulphonyl-2-methoxyphenyl)-5-(1-piperidinylmethyl)-1H-pyrrole] registered an IC50 of 0.2 to 26 nM.
Then `CCS(=O)(=O)c1ccc(OC)c(-c2ccc(C(C)N3CCCCC3)[nH]2)c1` (stereo not shown) [Example 16, 2-(5-Ethylsulphonyl-2-methoxyphenyl)-5-[1-(1-piperidinyl)-ethyl)-1H-pyrrolehydrochloride], with 0.2 to 26 nM; and `CCN(Cc1ccccc1)Cc1ccc(-c2cc(S(=O)(=O)CC)ccc2OC)[nH]1` [Example 27, 2-(5-Ethylsulphonyl-2-methoxyphenyl)-5-(N-benzyl-N-ethyl)-aminomethyl-1H-pyrrole hydrochloride], with 0.2 to 26 nM.
As to `CCN(Cc1ccccc1)Cc1ccc(-c2cc(S(=O)(=O)CC)cc(Br)c2OC)[nH]1` [Example 30, 2-(3-Bromo-5-ethylsulphonyl-2-methoxyphenyl)-5-(N-benzyl-N-ethyl)aminomethyl-1H-pyrrole hydrochloride], the IC50 was 0.2 to 26 nM.
In the case of `COc1cc(Br)cc(-c2ccc(C(C)N3CCCCC3)[nH]2)c1OC` (stereo not shown) [Example 36, 2-(2,3-Dimethoxy-5-bromophenyl)-5-[1-(1-piperidinyl)ethyl]-1H-pyrrole hydrochloride] it was 0.2 to 26 nM.
